Test results taken from US20030220312A1, “Epoxy-steroidal aldosterone antagonist and calcium channel blocker combination therapy for treatment of cardiovascular disorders” (G.D. Searle & Co., priority 2000, published 2003).

Experiments:
[1] = tested on: patients with heart failure after an acute myocardial infarction; test: Example 20 clinical study: eplerenone plus CCB in heart failure following acute myocardial infarction; format: in vivo, human; conditions: expected
Source text: Secondary endpoints include cardiovascular morbidity and mortality. […] (a) pulmonary edema (bilateral posttussive crackles extending at least 1⁄3 of the way up the lung fields in the absence of significant chronic pulmonary disease); or (b) chest x-ray showing pulmonary venous congestion with interstitial or alveolar edema; or (c) auscultatory evidence of a third heart sound (S3) with persistent tachycardia (>100 beats per minute). Eligible patients may be identified for inclusion at any time following emergency room evaluation and presumptive diagnosis of AMI with HF. […] Patients with implanted cardiac defibrillators are excluded. Patients will receive CCB therapy and may have received anticoagulants and antiplatelet agents, and may have received thrombolytics or emergency angioplasty. […] Serum potassium will be determined at 48 hours after initiation of treatment, at 1 and 5 weeks, at all other scheduled study visits, and within one week following any dose change. […] Vital signs (seated heart rate and BP), New York Heart Association (NYHA) functional class, adverse events, and selected concurrent medications will be recorded at every visit. […]

[2] = tested on: patients with mild to moderate hypertension; test: Example 19 clinical study: eplerenone versus placebo co-administered with a calcium-channel blocker; format: in vivo, human
Source text: This multicenter, randomized, double-blind, placebo-controlled, placebo run-in, parallel group trial involving a minimum of 120 randomized patients with hypertension (seated diastolic blood pressure [seDBP] ≧95 mmHg and <110 mmHg and seated systolic BP [seSBP] <180 mmHg while taking a CCB) will consist of a one- to two-week pretreatment screening period followed by a two- to four-week single-blind placebo run-in period and an 8-week double-blind treatment period. Eligible patients will be patients currently receiving a CCB as part of their antihypertensive medication. […] The dose will not be changed for patients with adequate BP control. […] If the dose has been increased at Week 2, the patient will be reassessed at Week 6. […] If BP is uncontrolled at Week 6 and the dose has been increased at Week 2 or Week 4, the patient must be withdrawn from the study. If symptomatic hypotension (i.e., lightheadedness, dizziness, or syncope associated with low BP) occurs at any time during the study, or if DBP is ≧110 mmHg or SBP is ≧180 mmHg at any time during the trial, the patient must be withdrawn. Patients will receive study medication for a total of 8 weeks.
Patients will return to the clinic for evaluations at Weeks 0 (baseline), 2, 4, 6, 8, and 9. Heart rate, BP, adverse events and concomitant medication will be assessed at each visit. Hematology and biochemistry evaluations and urinalysis for safety will be at Weeks 0, 8, and 9. Serum potassium levels will be determined at Weeks 0 (baseline), 2, 4, 6, 8, and 9. Plasma renin, serum aldosterone, and plasma cortisol will be determined at Weeks 0 and 8. A 12-lead electrocardiogram and physical examination will be done at screening and at Week 9.
The study will consist of a one- to two-week pretreatment screening period followed by a two- to four-week single-blind placebo run-in treatment period, prior to randomization to an eight-week double-blind treatment period.
Eligible patients will be either currently receiving a CCB alone, or receiving a CCB as part of their antihypertensive medication. […] The dose will not be changed for patients with adequate BP control. […] If the dose has been increased at Week 2, the patient will be reassessed at Week 6. The dose of study medication will not be changed for patients with adequate BP control. […] If BP is uncontrolled at Week 6 and the dose has been increased at Week 2 or Week 4, the patient must be withdrawn from the study. The dose of study medication will not be changed for patients with adequate BP control. If symptomatic hypotension (i.e., lightheadedness, dizziness, or syncope associated with low BP) occurs at any time during the study, or if DBP is ≧110 mmHg or SBP is ≧180 mmHg at any time during the study, the patient must be withdrawn. Patients will receive study medication for a total of eight weeks.
Patients will return to the clinic for evaluations at Weeks 0, 2, 4, 6, 8, and 9. Heart rate, BP, adverse events and concomitant medication will be assessed at each visit. Hematology and biochemistry evaluations and urinalysis for safety will be at Weeks 0, 8, and 9. Serum potassium levels will be determined at Weeks 0, 2, 4, 6, 8, and 9. Plasma renin, serum aldosterone, and plasma cortisol will be determined at Weeks 0 and 8. […]
BP evaluations will be analyzed at each visit using two-way analysis of covariance (ANCOVA) with the baseline measurement as the covariate and treatment and center as factors. […]

[3] = X-ray powder diffraction estimate of Form H content of dried solids; format: physicochemical; conditions: for Estimated Weight Percent of Form H: dried solids from methyl ethyl ketone crystallization
Protocol: The weight percent of the diepoxide or 11,12-epoxide in each sample is given in Tables X-6A and X-6B, respectively. A micro-flea magnetic stirrer was added to each scintillation vial along with 1 mL of methyl ethyl ketone. The vials were loosely capped and the solid dissolved by heating to reflux on a hot plate with magnetic stirring. Once the solids were dissolved, the solutions were allowed to cool to room temperature on the hot plate. Magnetic stirring was maintained during the cooling period. After the solutions reached room temperature, the solids were collected by vacuum filtration and immediately analyzed by X-ray powder diffraction (XPRD). The solids were then placed in a 100° C. oven and dried for one hour at ambient pressure. The dried solids were analyzed by XPRD for Form H content by monitoring the area of the Form H diffraction peak at about 12.1 degrees two theta. All XPRD diffraction patterns were recorded using an Inel Multipurpose Diffractometer.
Variables in the design of the experiments included cooling rate, starting material purity level, and end point temperature of crystallization.
High endpoint was defined as 45° C. and low endpoint was defined as 5° C. High cooling rate was defined as 3° C./minute cooling and low cooling rate was defined as 0.1° C./minute cooling.
After a background reading was taken with the FTIR, 250 mL of methyl ethyl ketone was charged to a 1 L Mettler RC-1, MP10 reactor and stirred at 100 rpm. […] Agitation was increased to 500 rpm to suspend solids and the batch temperature was increased to 80° C. […] Black or white specks generally were visible in the resulting transparent solution. The batch temperature was then ramp cooled at the desired rate to the desired endpoint, where it was maintained for one hour before being pulled into a transfer flask and filtered. […] reactor, transfer flask and cake were then washed with 120 mL methyl ethyl ketone. Once the wash was pulled through the cake, the stopped. About 10 grams of each wet cake were dried in a vacuum oven under nominal conditions of 75° C. with a light nitrogen bleed. […]

[4] = tested on: rats with myocardial infarction; test: Assay D: Myocardial Infarction Rat Model (coronary ligation); format: in vivo; conditions: combination of calcium channel blocker and eplerenone versus either component alone, six weeks, expected
Protocol: Assay “D”: Myocardial Infarction Rat Model: Male rats are anesthetized and the heart is exteriorized following a left sided thoracotomy. The left anterior descending coronary artery is ligated with a suture. The thorax is closed and the animal recovers. Sham animals have the suture passed through without ligation. One week prior to the surgery, animals to undergo infarction are divided into separate groups and drug treatment is begun. Groups of animals are administered vehicle, calcium channel blocker alone, eplerenone alone, and combinations of calcium channel blocker and eplerenone, at various doses, as follow: After six weeks, systolic and diastolic blood pressure, left ventricular end diastolic pressure, left ventricular dP/dT, and heart rate are evaluated. The hearts are removed, weighed, measured and fixed in formalin. Collagen content of heart sections are evaluated using computerized image analysis of picrosirius stained sections.

hypertensive rats = test: Assay C: Hypertensive Rat Model (renal artery clip); format: in vivo; conditions: combination of calcium channel blocker and eplerenone versus either component alone, 12 to 24 weeks, expected
Source text: Assay “C”: Hypertensive Rat Model Male rats are made hypertensive by placing a silver clip with an aperture of 240 microns on the left renal artery, leaving the contralateral kidney untouched. Sham controls undergo the-same procedure but without attachment of the clip. One week prior to the surgery, animals to be made hypertensive are divided into separate groups and drug treatment is begun. […] The hearts are removed, weighed, measured and fixed in formalin. Collagen content of heart sections are evaluated using computerized image analysis of picrosirius stained sections.

[5] = Form H content of the Form H seeding product by DSC; format: physicochemical; conditions: cooling rate (0) 1.5° C./min, cooling endpoint (0) 25° C., 100.8% eplerenone seeded with Form H
Source text: The X-ray powder diffraction model, however, had not been tested for linearity beyond about 15% Form H. This experiment was the only one of the four experiments of this Example where Form H was created in the absence of the diepoxide.

[6] = Thermogravimetry / DSC of eplerenone solvates (desolvation); format: physicochemical; conditions: eplerenone solvate of the named solvent; extrapolated from final solvent weight loss step, thermogravimetric analysis at 10° C./minute under nitrogen purge
Protocol: Each sample (1-10 mg) was placed in an unsealed aluminum pan and heated at 10° C./minute.
Thermogravimetric analysis of solvates was performed using a TA Instruments TGA 2950 thermogravimetric analyzer. Samples were placed in an unsealed aluminum pan under nitrogen purge. Starting temperature was 25° C. with the temperature increased at a rate of about 10° C./minute.

[7] = tested on: myocardial fibrosis in animal models; conditions: literature (Klug et al; Brilla et al); cited from earlier work
[8] = CCB and eplerenone compared to CCB and placebo, Week 8
[9] = eplerenone 50-100 mg plus CCB versus CCB and placebo, eight weeks, hypertensive patients

COC(=O)[C@@H]1CC2=CC(=O)CC[C@]2(C)[C@@]23O[C@@H]2C[C@@]2(C)[C@@H](CC[C@@]24CCC(=O)O4)[C@H]13 [eplerenone, pregn-4-ene-7,21-dicarboxylic acid, 9,11-epoxy-17-hydroxy-3-oxo, γ-lactone, methyl ester, (7α,11α,17α)-]
all cause mortality (primary end point) ([1]; eplerenone plus CCB relative to CCB alone): Improvement
secondary end points (cardiovascular mortality, hospitalizations, atrial fibrillation, stroke, quality of life) ([1]; eplerenone plus CCB versus CCB alone): Beneficial effects
change in active renin levels [2, 8]: greater increase
change in aldosterone levels [2, 8]: greater increase
change in mean diastolic blood pressure [2, 9]: greater for the dual therapy group, compared to monotherapy, but this difference did not reach statistical significance
change in systolic blood pressure [2, 9]: significant reduction
serious adverse events ([2]; eplerenone added to CCB therapy, eight weeks): no serious adverse events
Weight Percent Form H (XPRD) ([3]; cooling rate (+) 3° C./min, cooling endpoint (+) 45° C., impurity level (++) 61.1% purity eplerenone starting material, appears to be mixture of Form H and diepoxide): 100^5 Weight Percent
Estimated Weight Percent of Form H ([3]; 0% diepoxide in starting eplerenone mixture): None
Estimated Weight Percent of Form H ([3]; 1% diepoxide in starting eplerenone mixture): None
cardiac performance [4]: improvements in cardiac performance
cardiac performance (hypertensive rats): improvements in cardiac performance
Weight Percent Form H when analyzed by DSC [5]: 100 Weight Percent

CCCCO [n-Butanol]
Desolvation Temperature [6]: 103 °C

CCCCCCCCO [n-Octanol]
Desolvation Temperature [6]: 116 °C

CC(=O)S[C@@H]1CC2=CC(=O)CC[C@]2(C)[C@H]2CC[C@@]3(C)[C@@H](CC[C@@]34CCC(=O)O4)[C@H]12 [spironolactone]
myocardial fibrosis [7]: prevents myocardial fibrosis

Acetone
Desolvation Temperature [6]: 117 °C

Butyl Acetate
Desolvation Temperature [6]: 108 °C

Chloroform
Desolvation Temperature [6]: 125 °C

Ethanol
Desolvation Temperature [6]: 166 °C

Ethyl Propionate
Desolvation Temperature [6]: 122 °C

Isobutyl Acetate
Desolvation Temperature [6]: 112 °C

Isopropanol
Desolvation Temperature [6]: 121 °C

Methyl Acetate
Desolvation Temperature [6]: 103 °C

Methyl Ethyl Ketone
Desolvation Temperature [6]: 89 °C

Propyl Acetate
Desolvation Temperature [6]: 130 °C

Propylene Glycol
Desolvation Temperature [6]: 188 °C

Tetrahydrofuran
Desolvation Temperature [6]: 136 °C

Toluene
Desolvation Temperature [6]: 83 °C

t-Butyl Acetate
Desolvation Temperature [6]: 109 °C
